COc1cc(NS(=O)(=O)c2ccc(N)cc2)ncn1
Details | solubility (mole fraction)
in acetone, 299.05 K | 0.00789
in acetone, 303.3 K | 0.00849
in acetone, 308.2 K | 0.00935
in acetone, 313.15 K | 0.0105
in acetone, 318.05 K | 0.0112
in acetone, 323.05 K | 0.0124
in ethanol, 297.95 K | 0.000496
in ethanol, 310.95 K | 0.000859
in ethanol, 317.65 K | 0.00109
in ethanol, 327.95 K | 0.00161
in ethanol, 337.85 K | 0.00243
in ethanol, 347.15 K | 0.00356
in ethyl acetate, 300.65 K | 0.00114
in ethyl acetate, 308.2 K | 0.00131
in ethyl acetate, 316.05 K | 0.00146
in ethyl acetate, 324 K | 0.00169
in ethyl acetate, 331.95 K | 0.00184
in ethyl acetate, 339.8 K | 0.00205
in methanol, 294.55 K | 0.000735
in methanol, 303.15 K | 0.000951
in methanol, 309.95 K | 0.00117
in methanol, 317.75 K | 0.00164
in methanol, 325.85 K | 0.00221
in methanol, 332.65 K | 0.00284
in n-butanol, 305.2 K | 0.000117
in n-butanol, 318.05 K | 0.000288
in n-butanol, 327.85 K | 0.000607
in n-butanol, 339.85 K | 0.00121
in n-butanol, 352.55 K | 0.0029
in n-butanol, 362.15 K | 0.00479
in n-propanol, 300.25 K | 0.000233
in n-propanol, 308.15 K | 0.00037
in n-propanol, 318.05 K | 0.000598
in n-propanol, 327.95 K | 0.00102
in n-propanol, 342.75 K | 0.00198
in n-propanol, 352.45 K | 0.00353
in n-propanol, 361.85 K | 0.00556

Source: BigSolDB 2.1
